Test results from publication PMC12586182 (Frontiers in Oncology, 2025).

Legend:
Test in all cases: Kinase panel profiling at 1 µmol/L (mobility shift assay, Carna)
Assay type in all cases: biochemical
Settings in all cases: 1 µmol/L of BTK inhibitor
[1] = molecular target: T1, TNIK (Homo sapiens, UniProt Q9UKE5)
T1 construct: purchased Carna Biosciences

[2] = molecular target: T2, FLT3 (Homo sapiens, UniProt P36888)
T2 construct: purchased Carna Biosciences
T2 sequence (P36888 27-993): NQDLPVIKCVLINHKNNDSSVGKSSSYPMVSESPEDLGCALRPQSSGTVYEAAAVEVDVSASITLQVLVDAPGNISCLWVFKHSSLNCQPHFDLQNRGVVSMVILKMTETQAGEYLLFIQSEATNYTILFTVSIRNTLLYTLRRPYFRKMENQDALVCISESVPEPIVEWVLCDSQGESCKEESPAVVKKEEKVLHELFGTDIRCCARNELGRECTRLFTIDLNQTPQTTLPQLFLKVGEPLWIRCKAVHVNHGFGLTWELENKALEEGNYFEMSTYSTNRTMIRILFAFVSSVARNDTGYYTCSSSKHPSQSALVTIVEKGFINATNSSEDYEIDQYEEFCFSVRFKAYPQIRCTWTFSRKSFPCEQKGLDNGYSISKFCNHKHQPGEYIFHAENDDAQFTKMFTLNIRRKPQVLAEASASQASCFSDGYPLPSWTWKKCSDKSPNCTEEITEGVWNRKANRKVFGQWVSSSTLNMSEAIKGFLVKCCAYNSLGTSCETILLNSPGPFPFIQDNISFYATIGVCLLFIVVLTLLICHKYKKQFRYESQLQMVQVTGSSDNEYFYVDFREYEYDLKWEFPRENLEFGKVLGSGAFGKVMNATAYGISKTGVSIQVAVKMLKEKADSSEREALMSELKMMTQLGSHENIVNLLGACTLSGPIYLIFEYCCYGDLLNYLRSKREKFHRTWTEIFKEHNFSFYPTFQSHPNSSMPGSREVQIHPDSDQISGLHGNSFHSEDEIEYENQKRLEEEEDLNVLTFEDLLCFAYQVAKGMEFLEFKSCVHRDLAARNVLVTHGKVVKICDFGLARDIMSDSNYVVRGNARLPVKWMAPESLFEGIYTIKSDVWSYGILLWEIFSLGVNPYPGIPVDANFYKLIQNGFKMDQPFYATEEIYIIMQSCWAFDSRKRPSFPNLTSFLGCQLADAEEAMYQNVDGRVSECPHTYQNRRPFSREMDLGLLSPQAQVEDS

[3] = molecular target: T3, AKT2 (Homo sapiens, UniProt P31751)
T3 construct: purchased Carna Biosciences
T3 sequence (P31751 whole entry): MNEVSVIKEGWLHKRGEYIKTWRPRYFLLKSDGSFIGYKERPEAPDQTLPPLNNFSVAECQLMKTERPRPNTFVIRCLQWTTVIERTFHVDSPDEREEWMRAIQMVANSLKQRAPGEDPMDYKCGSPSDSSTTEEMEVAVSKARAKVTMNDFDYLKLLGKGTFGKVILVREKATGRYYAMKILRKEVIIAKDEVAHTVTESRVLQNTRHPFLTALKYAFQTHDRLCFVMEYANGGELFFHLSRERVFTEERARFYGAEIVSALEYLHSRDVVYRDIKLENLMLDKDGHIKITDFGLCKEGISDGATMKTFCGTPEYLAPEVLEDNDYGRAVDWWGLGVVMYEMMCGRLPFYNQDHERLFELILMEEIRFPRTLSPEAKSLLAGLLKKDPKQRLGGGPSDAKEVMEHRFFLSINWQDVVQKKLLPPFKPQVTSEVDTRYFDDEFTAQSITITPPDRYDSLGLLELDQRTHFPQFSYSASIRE

[4] = molecular target: T4, CDK2/CycA2 (Homo sapiens, UniProt P24941)
T4 construct: purchased Carna Biosciences

[5] = molecular target: T5, Erk5 (Homo sapiens, UniProt Q13164)
T5 construct: purchased Carna Biosciences
T5 sequence (Q13164 whole entry): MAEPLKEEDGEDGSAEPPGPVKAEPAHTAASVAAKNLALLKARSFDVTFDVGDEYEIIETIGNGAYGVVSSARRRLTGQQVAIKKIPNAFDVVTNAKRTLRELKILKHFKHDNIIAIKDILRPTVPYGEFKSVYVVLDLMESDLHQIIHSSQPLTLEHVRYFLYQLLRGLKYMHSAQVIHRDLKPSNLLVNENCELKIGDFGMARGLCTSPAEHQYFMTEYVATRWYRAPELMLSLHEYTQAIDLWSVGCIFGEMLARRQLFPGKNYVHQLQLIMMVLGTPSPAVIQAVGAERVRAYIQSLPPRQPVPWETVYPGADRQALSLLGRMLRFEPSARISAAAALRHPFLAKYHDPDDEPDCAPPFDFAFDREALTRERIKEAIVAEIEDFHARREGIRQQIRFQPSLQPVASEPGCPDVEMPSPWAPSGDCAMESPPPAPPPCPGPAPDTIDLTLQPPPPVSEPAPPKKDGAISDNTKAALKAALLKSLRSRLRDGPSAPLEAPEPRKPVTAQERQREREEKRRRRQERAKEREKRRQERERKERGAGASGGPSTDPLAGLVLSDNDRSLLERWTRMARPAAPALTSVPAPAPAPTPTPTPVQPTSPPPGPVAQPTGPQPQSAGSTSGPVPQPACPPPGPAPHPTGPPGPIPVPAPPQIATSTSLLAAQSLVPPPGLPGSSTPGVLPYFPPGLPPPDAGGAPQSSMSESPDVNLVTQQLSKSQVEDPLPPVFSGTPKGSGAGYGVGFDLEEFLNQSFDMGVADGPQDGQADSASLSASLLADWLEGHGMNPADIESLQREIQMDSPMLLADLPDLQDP

[6] = molecular target: T6, MNK2 (Homo sapiens, UniProt Q9HBH9)
T6 construct: purchased Carna Biosciences
T6 sequence (Q9HBH9 whole entry): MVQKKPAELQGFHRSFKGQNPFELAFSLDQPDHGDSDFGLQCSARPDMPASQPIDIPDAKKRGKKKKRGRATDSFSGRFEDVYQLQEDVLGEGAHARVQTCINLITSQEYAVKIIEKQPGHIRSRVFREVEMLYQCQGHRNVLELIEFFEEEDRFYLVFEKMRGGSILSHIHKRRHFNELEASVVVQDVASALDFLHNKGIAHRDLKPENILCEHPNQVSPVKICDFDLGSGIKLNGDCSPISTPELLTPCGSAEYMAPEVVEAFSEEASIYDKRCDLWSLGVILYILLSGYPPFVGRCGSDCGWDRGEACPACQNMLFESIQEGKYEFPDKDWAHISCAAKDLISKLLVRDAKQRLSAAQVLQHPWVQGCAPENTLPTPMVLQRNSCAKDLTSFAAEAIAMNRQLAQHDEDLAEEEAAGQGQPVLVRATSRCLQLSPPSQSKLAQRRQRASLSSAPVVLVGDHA

[7] = molecular target: T7, CHK2 (Homo sapiens, UniProt O96017)
T7 construct: purchased Carna Biosciences
T7 sequence (O96017 whole entry): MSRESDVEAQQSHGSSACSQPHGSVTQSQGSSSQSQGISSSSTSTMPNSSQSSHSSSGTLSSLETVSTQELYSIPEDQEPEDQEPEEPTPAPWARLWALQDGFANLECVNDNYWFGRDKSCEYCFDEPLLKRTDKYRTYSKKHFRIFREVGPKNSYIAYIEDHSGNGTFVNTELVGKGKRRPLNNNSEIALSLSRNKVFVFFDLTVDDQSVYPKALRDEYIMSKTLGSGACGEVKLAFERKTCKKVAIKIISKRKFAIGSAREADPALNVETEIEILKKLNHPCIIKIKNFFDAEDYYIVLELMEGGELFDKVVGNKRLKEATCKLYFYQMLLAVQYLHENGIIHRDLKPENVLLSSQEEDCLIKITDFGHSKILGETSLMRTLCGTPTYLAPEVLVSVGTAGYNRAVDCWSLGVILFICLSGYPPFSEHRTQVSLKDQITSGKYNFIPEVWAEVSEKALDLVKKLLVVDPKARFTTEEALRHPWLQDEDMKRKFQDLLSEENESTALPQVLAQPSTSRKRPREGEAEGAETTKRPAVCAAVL

[8] = molecular target: T8, FLT4 (Homo sapiens, UniProt P35916)
T8 construct: purchased Carna Biosciences
T8 sequence (P35916 25-1363): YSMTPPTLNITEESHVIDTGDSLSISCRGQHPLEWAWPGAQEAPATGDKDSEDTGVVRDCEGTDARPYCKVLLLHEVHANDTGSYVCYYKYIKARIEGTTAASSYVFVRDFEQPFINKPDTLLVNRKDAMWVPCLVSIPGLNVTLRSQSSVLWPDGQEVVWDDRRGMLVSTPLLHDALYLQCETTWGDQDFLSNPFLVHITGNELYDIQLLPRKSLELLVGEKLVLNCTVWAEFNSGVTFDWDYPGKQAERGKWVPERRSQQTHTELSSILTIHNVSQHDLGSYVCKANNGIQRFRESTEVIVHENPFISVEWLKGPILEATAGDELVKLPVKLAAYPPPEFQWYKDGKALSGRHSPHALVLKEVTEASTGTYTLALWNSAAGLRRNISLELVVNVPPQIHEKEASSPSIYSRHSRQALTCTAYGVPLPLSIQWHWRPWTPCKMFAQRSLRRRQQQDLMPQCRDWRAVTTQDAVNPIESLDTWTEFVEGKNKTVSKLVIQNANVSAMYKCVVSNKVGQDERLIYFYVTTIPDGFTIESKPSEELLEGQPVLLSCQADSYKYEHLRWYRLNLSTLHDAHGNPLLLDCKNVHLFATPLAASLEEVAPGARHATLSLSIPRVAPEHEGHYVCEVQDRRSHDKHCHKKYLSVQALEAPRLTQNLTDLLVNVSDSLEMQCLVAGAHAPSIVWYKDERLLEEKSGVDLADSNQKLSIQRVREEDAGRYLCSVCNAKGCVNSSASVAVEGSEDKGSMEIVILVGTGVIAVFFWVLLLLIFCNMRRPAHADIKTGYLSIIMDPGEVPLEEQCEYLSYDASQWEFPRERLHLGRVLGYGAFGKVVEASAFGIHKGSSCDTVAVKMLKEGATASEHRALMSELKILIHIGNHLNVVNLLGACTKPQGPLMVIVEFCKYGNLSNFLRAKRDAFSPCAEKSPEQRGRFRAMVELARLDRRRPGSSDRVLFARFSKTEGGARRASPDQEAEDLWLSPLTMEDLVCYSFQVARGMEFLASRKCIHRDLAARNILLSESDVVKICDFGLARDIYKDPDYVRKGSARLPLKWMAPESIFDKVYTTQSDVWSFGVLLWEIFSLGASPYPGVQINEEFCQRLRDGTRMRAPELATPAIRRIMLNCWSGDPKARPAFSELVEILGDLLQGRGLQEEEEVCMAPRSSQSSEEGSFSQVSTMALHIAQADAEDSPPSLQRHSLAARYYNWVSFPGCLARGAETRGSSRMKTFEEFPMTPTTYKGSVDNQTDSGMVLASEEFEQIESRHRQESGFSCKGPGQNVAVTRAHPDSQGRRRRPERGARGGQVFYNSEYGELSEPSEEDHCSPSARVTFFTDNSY

[9] = molecular target: T9, EPHB4 (Homo sapiens, UniProt P54760)
T9 construct: purchased Carna Biosciences
T9 sequence (P54760 16-987): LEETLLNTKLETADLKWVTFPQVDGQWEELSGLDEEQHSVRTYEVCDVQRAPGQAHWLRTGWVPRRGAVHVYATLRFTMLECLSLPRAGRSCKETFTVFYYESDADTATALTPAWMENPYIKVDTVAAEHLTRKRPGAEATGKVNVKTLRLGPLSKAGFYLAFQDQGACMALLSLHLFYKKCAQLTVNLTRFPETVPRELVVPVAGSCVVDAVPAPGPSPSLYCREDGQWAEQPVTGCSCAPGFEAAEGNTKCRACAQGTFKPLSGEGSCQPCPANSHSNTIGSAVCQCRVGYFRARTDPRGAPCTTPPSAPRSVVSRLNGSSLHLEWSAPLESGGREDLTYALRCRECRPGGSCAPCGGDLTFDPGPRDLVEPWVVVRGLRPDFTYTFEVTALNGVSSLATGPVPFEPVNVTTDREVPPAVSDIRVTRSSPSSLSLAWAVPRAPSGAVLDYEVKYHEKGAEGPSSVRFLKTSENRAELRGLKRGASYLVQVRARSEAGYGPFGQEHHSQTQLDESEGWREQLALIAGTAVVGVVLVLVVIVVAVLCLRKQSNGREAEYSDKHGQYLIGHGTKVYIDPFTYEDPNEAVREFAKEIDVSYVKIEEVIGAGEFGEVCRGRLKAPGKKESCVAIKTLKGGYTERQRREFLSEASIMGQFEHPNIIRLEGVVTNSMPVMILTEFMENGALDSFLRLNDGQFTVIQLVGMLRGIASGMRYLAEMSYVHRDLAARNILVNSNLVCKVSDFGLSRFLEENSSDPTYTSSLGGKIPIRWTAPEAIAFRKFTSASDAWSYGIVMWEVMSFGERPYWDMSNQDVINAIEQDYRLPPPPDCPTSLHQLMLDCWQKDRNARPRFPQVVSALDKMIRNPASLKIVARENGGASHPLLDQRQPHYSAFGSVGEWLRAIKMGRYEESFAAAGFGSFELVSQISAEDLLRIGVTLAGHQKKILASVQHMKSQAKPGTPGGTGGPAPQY

T1 sequence (Q9UKE5 whole entry): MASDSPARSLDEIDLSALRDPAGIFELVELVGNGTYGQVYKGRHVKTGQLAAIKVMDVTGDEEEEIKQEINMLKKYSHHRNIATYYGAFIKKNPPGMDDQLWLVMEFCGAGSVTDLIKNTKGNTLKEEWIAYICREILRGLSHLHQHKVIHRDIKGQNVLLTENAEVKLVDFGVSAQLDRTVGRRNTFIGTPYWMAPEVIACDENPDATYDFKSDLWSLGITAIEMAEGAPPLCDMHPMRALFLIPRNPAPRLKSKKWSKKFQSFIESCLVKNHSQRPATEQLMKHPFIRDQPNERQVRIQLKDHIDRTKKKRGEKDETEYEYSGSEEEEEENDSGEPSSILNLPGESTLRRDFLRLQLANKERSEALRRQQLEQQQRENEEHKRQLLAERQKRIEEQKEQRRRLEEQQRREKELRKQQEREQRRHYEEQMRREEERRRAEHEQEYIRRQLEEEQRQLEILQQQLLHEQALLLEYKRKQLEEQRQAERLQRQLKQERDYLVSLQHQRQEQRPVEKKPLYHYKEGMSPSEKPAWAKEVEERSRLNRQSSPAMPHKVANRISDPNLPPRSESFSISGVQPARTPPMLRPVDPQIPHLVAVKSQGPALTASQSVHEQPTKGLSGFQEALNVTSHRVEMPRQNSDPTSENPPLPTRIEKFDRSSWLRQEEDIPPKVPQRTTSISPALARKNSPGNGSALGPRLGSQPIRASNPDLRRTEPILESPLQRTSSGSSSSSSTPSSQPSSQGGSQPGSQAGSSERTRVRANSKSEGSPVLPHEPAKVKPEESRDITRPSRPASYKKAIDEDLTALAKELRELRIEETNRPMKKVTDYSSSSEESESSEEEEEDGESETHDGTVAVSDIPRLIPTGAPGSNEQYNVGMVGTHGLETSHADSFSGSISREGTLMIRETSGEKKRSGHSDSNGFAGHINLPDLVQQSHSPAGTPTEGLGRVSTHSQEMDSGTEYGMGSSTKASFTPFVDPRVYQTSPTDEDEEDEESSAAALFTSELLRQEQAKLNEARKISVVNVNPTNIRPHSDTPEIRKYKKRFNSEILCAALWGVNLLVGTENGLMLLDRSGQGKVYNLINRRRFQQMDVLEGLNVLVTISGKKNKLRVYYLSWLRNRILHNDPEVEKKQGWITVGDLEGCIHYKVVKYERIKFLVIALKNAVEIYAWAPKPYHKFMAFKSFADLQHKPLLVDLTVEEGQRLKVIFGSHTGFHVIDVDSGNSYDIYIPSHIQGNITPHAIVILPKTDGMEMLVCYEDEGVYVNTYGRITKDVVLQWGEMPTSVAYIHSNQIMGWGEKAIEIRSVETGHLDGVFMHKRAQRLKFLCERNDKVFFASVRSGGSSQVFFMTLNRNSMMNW

Row | SMILES | Percentage inhibition of kinase enzyme activity [1] [%] | Percentage inhibition of kinase enzyme activity [2] [%] | Percentage inhibition of kinase enzyme activity [3] [%] | Percentage inhibition of kinase enzyme activity [4] [%] | Percentage inhibition of kinase enzyme activity [5] [%] | Percentage inhibition of kinase enzyme activity [6] [%] | Percentage inhibition of kinase enzyme activity [7] [%] | Percentage inhibition of kinase enzyme activity [8] [%] | Percentage inhibition of kinase enzyme activity [9] [%]
1 | CC#CC(=O)N1CCC[C@H]1c1nc(-c2ccc(C(=O)Nc3ccccn3)cc2)c2c(N)nccn12 [acalabrutinib] | -0.81 | 3.27 | -2.69 | -5.19 | -2.12 | 12.37 | -5.77 | 1.41 | -1.45
2 | C=CC(=O)N1CCC[C@@H](n2nc(-c3ccc(Oc4ccccc4)cc3)c3c(N)ncnc32)C1 [ibrutinib] | -1.62 | 62.77 | -3.12 | -11.88 | 3.89 | 19.75 | 14.14 | 90.82 | 26.52
3 | O=C(c1ccc(Oc2ccccc2)cc1Cl)c1c[nH]c2ncnc(N[C@@H]3CC[C@@H](CO)OC3)c12 [nemtabrutinib] | 85.96 | 99.30 | 4.40 | -1.69 | 15.76 | 56.12 | 49.89 | 90.70 | 37.75
4 | C=CC(=O)N1CCC([C@@H]2CCNc3c(C(N)=O)c(-c4ccc(Oc5ccccc5)cc4)nn32)CC1 [zanubrutinib] | – | 6.34 | – | – | – | – | – | -6.85 | 12.92
5 | COc1ccc(F)cc1C(=O)NCc1ccc(-c2nn([C@@H](C)C(F)(F)F)c(N)c2C(N)=O)cc1 [pirtobrutinib] | -3.38 | -4.18 | -4.63 | -4.56 | 0.51 | 7.34 | 7.28 | 4.92 | 4.51
